Source: patent US20230086702A1, “SUBSTITUTED 2-AMINO-PYRAZOLYL-[1,2,4]TRIAZOLO[1,5A]PYRIDINE DERIVATIVES AND USE THEREOF” (The Johns Hopkins University, priority 2019, published 2023)

Columns and labels:
[1] = target: T1, DLK (Homo sapiens, UniProt Q12852); experiment: DLK biochemical assay (TR-FRET, MKK7 phosphorylation); settings: DLK catalytic domain, MKK7 substrate, 60 μM ATP
T1 construct: 10 nM DLK, catalytic domain, Carna Biosiences; purchased Carna Biosciences ('Carna Biosiences' [sic])
T1 sequence (Q12852 125-366 limits assumed): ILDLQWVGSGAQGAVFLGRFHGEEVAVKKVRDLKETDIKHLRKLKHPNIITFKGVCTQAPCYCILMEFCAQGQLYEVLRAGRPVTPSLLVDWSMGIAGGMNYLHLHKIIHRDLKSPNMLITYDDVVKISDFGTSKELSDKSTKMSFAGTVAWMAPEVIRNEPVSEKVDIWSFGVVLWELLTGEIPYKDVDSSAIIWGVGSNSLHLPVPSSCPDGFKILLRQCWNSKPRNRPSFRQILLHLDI
In short: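 Human DLK activity measured as phosphorylation of His-tagged MKK7 at T275/S277, detected by TR-FRET between Eu-anti-phospho-MKK7 donor (excitation 340 nm) and XL665-anti-His acceptor (665 nm). Signal taken as the XL665/Eu ratio. Detection buffer: 25 mM Tris/HCl pH 7.5, 100 mM EDTA, 100 mM NaCl, 200 mM KF, 0.01% Tween 20.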

[2] = target: T2, LZK (Homo sapiens, UniProt O43283); experiment: LZK biochemical assay (TR-FRET, MKK7 phosphorylation); settings: LZK catalytic domain, MKK7 substrate, 15 μM ATP
T2 construct: 10 nM LZK, catalytic domain, Carna Biosiences in assay buffer; purchased Carna Biosciences ('Carna Biosiences' [sic])
T2 sequence (O43283 168-409 limits assumed): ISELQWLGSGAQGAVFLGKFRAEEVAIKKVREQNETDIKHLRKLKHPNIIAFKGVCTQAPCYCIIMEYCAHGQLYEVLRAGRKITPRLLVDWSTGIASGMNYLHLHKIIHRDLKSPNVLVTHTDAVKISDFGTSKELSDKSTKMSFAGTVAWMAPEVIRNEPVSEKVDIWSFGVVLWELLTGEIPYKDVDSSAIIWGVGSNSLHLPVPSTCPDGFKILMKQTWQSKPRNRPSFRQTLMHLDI

Compound | IC50 [1] [nM] | IC50 [2] [nM]
CC[C@H](C)NC(=O)c1cc(-c2cnn(C(c3cncc(Cl)c3)C(C)C)c2)cn2nc(N)nc12 (mixture of isomers) [Example I-61, 2-Amino-N-[(2S)-butan-2-yl]-6-{1-[1-(5-chloropyridin-3-yl)-2-methylpropyl]-1H-pyrazol-4-yl}[1,2,4]triazolo[1,5-a]pyridine-8-carboxamide] | 0.6 | 3.3
CC[C@H](C)NC(=O)c1cc(-c2cnn(C3CCc4ccccc43)c2)cn2nc(N)nc12 (single isomer, unassigned) [Example I-14] | 12 | 4.7
CC[C@H](C)NC(=O)c1cc(-c2cnn(C(c3ccc(OCC(F)(F)F)nc3)C(C)C)c2)cc2nc(N)nn12 (single isomer, unassigned) [Example I-118] | 8.6 | 29
CC[C@H](C)NC(=O)c1cc(-c2cnn(C3CCCc4cccnc43)c2)cc2nc(N)nn12 (mixture of isomers) [Example I-22, 2-Amino-N-[(2S)-butan-2-yl]-7-[1-(5,6,7,8-tetrahydroquinolin-8-yl)-1H-pyrazol-4-yl][1,2,4]triazolo[1,5-a]pyridine-5-carboxamide] | 27 | 13
CC[C@H](C)NC(=O)c1cc(-c2cnn(C(c3ccc(OCC(F)(F)F)nc3)C3CC3)c2)cc2nc(N)nn12 (single isomer, unassigned) [Example I-120] | 44 | 140
Nc1nc2cc(-c3cnn(C4CCOCC4)c3)cc(C(=O)N[C@H]3CCOC3)n2n1 (single isomer, unassigned) [Example I-176] | 220 | 210
CC(C)(CO)NC(=O)c1cc(-c2cnn(C(c3ccc(C(F)(F)F)nc3)C3CCOCC3)c2)cn2nc(N)nc12 (single isomer, unassigned) [Example I-167, 2-Amino-N-(1-hydroxy-2-methylpropan-2-yl)-6-(1-{tetrahydro-2H-pyran-4-yl[6-(trifluoromethyl)pyridin-3-yl]methyl}-1H-pyrazol-4-yl)[1,2,4]triazolo[1,5-a]pyridine-8-carboxamide] | 22 | 85
CC[C@H](C)NC(=O)c1cc(-c2cnn(Cc3ccc(C(F)(F)F)cc3)c2)cn2nc(N)nc12 (single isomer, unassigned) [Example I-46] | 25 | 40
CC[C@H](C)NC(=O)c1cc(-c2cnn([C@@H](CC)c3cncc(Cl)c3)c2)cn2nc(N)nc12 (single isomer, unassigned) [Example I-60] | 3.7 | 8.9
CC[C@H](C)NC(=O)c1cc(-c2cnn([C@H](c3ccc(C(F)(F)F)nc3)C(C)C)c2)cn2nc(N)nc12 (single isomer, unassigned) [Example I-75] | 1.1 | 2.4
CC[C@H](C)NC(=O)c1cc(-c2cnn(C(c3ccc(C(F)(F)F)nc3)C3CCOCC3)c2)cc2nc(N)nn12 (mixture of isomers) [Example I-110, 2-Amino-N-[(2S)-butan-2-yl]-7-(1-{tetrahydro-2H-pyran-4-yl[6-(trifluoromethyl)pyridin-3-yl]methyl}-1H-pyrazol-4-yl)[1,2,4]triazolo[1,5-a]pyridine-5-carboxamide] | 1.6 | 2.3
CCC(c1ccc(OCC(F)(F)F)nc1)n1cc(-c2cc(C(=O)N[C@@H](C)CC)n3nc(N)nc3c2)cn1 (single isomer, unassigned) [Example I-114] | 49 | 130
CC(CF)NC(=O)c1cc(-c2cnn(C3CCOc4ccccc43)c2)cn2nc(N)nc12 (single isomer, unassigned) [Example I-146, 2-Amino-6-[1-(3,4-dihydro-2H-chromen-4-yl)-1H-pyrazol-4-yl]-N-(1-fluoropropan-2-yl)[1,2,4]triazolo[1,5-a]pyridine-8-carboxamide] | 130 | 85
CCC(c1ccc(OC(F)(F)F)nc1)n1cc(-c2cc(C(=O)NC(C)(C)CO)c3nc(N)nn3c2)cn1 (single isomer, unassigned) [Example I-171, 2-Amino-N-(1-hydroxy-2-methylpropan-2-yl)-6-(1-{1-[6-(trifluoromethoxy)pyridin-3-yl]propyl}-1H-pyrazol-4-yl)[1,2,4]triazolo[1,5-a]pyridine-8-carboxamide] | 85 | 150
CC[C@H](C)NC(=O)c1cc(-c2cnn(C(c3ccc(C(F)F)nc3)C(C)C)c2)cc2nc(N)nn12 (mixture of isomers) [Example I-95, 2-Amino-N-[(2S)-butan-2-yl]-7-(1-{1-[6-(difluoromethyl)pyridin-3-yl]-2-methylpropyl}-1H-pyrazol-4-yl)[1,2,4]triazolo[1,5-a]pyridine-5-carboxamide] | 1.5 | 4.7
CC[C@H](C)NC(=O)c1cc(-c2cnn(C3CCCC3)c2)cc2nc(N)nn12 (single isomer, unassigned) [Example I-12] | 120 | 70
Nc1nc2c(C(=O)NC3CCC3)cc(-c3cnn(Cc4ccc(F)cc4)c3)cn2n1 [Example I-132, 2-Amino-N-cyclobutyl-6-{1-[(4-fluorophenyl)methyl]-1H-pyrazol-4-yl}[1,2,4]triazolo[1,5-a]pyridine-8-carboxamide] | 85 | 240
CC(C)C(c1ccc(C(F)(F)F)nc1)n1cc(-c2cc(C(=O)N[C@H]3CCOC3)n3nc(N)nc3c2)cn1 (single isomer, unassigned) [Example I-182] | 0.3 | 1.2
CCC(c1ccc(C(F)F)nc1)n1cc(-c2cc(C(=O)N[C@@H](C)CC)c3nc(N)nn3c2)cn1 (mixture of isomers) [Example I-64, 2-Amino-N-[(2S)-butan-2-yl]-6-(1-{1-[6-(difluoromethyl)pyridin-3-yl]propyl}-1H-pyrazol-4-yl)[1,2,4]triazolo[1,5-a]pyridine-8-carboxamide] | 1.7 | 7
CCC(c1ccc(OCC(F)(F)F)nc1)n1cc(-c2cc(C(=O)N[C@H]3CCOC3)n3nc(N)nc3c2)cn1 (single isomer, unassigned) [Example I-188] | 16 | 190
CC[C@H](C)NC(=O)c1cc(-c2cnn([C@H](c3ccc(C(F)(F)F)nc3)C3CC3)c2)cc2nc(N)nn12 (single isomer, unassigned) [Example I-109] | 1.8 | 3.5
CC(CF)NC(=O)c1cc(-c2cnn(C(c3ccccc3)C(C)C)c2)cn2nc(N)nc12 (single isomer, unassigned) [Example I-139, 2-Amino-N-(1-fluoropropan-2-yl)-6-{1-[2-methyl-1-phenylpropyl]-1H-pyrazol-4-yl}[1,2,4]triazolo[1,5-a]pyridine-8-carboxamide] | 1.7 | 64
CC[C@H](C)NC(=O)c1cc(-c2cnn(C(c3ccc(C(F)(F)F)nc3)C(C)C)c2)cn2nc(N)nc12 (mixture of isomers) [Example I-73, 2-Amino-N-[(2S)-butan-2-yl]-6-(1-{2-methyl-1-[6-(trifluoromethyl)pyridin-3-yl]propyl}-1H-pyrazol-4-yl)[1,2,4]triazolo[1,5-a]pyridine-8-carboxamide] | 1.6 | 5.8
